GI50 and TGI data for eight compounds are collected here from PubChem BioAssay (NCI).

“And” between values parts separate entries of the source, which are not always exact repeats. Equal values may be shown once.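 Test compounds were applied to cells in 96-well plates for 48 hours at 5 doses. GI50 is the concentration that inhibits growth by half. TGI: concentration producing complete growth inhibition.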

Common to all, as to test: NCI anticancer screen, dose series, 48 h
Test [1] deals with U251 CNS.
Test [2] deals with HCC-2998 colon.
The test system of test [3] is SF-295 CNS.
The test system of test [4] is SNB-19 CNS.
In test [5] the test system is OVCAR-3 ovarian.
The test system of test [6] is SK-OV-3 ovarian.
Test [7] has as its system NCI-H226 lung.
For test [8], the system named is SR leukemia.
Test [9] relates to HOP-92 NSCLC.
For test [10], the system named is HCT-15 colon.

Turning to `COc1ccc(/C(=N/Nc2ccc([N+](=O)[O-])cc2)Sc2cc(Cl)c(C)cc2S(N)(=O)=O)cc1`, the GI50 in [1] was 7.13 µM; in test [2], 4.29 µM; in test [3], 3.31 µM; in test [4], 7.06 µM; in [5], 2.52 µM; in [6], 5.89 µM. Moreover, the GI50 in [7] is 3.52 µM; in test [8], 2.17 µM; in [9], 2.47 µM; in test [10] it was 7.25 µM. Moreover, the TGI came to 24.3 µM in [1]; 8.75 µM in test [2]; 8.78 µM in test [3]; 20.3 µM in test [4]; 7.4 µM in [5]; 12.7 µM in test [6]. The TGI in test [7] was 9.63 µM; in test [8] it was 5.41 µM; in [9], 8.01 µM; in test [10] it was above 40.8 µM.
With `COc1ccc(C(=O)/C=C/c2cccnc2Nc2cc(OC)c(OC)c(OC)c2)cc1`, the GI50 is 0.926 µM in [1]; 1.35 µM in [2]; 1.71 µM in [3]; 2.82 µM in test [4]; 0.617 µM in [5]; 4.12 µM in test [6]. The GI50 in [7] is 2.51 µM; in [8] it was 0.0949 µM; in test [9], 2.4 µM; in test [10], 0.884 µM. For the same compound, the TGI worked out at 7 µM in [1]; 2.85 µM in test [2]; 18.9 µM in [3]; 17.3 µM in test [4]; 4.72 µM in test [5]; 16.4 µM in [6]. For the same compound, the TGI in test [7] came to 8.86 µM; in test [8], 2.43 µM; in test [9], 11.8 µM; in test [10], 3.86 µM.
Turning to `NCCCCn1c2c(c3ccccc3c1=O)C(=O)c1ccccc1-2`, the GI50 in test [1] is 0.0485 µM; in test [2] it was 0.484 µM; in test [3], 0.0726 µM; in test [4] it was 0.389 µM; in [5], 0.502 µM; in test [6], 1.04 µM. Also, the GI50 in test [7] was 0.107 µM; in test [9] it was 0.0363 µM; in test [10], 0.0582 µM. Besides, the TGI in test [1] was 0.824 µM; in test [2], 1.92 µM; in [3], 0.753 µM; in test [4], 12.2 µM; in test [5], 4.22 µM; in test [6], 9.81 µM. The TGI in test [7] was determined as 0.458 µM; in test [8], 0.0486 µM; in [9] it was 0.535 µM; in test [10], 0.412 µM.
With `O=C1C2=C(CC3C(C2)C3(Br)Br)C(=O)C2=C1CC1C(C2)C1(Br)Br` (configuration not stated), the TGI in [1], in [2], in test [3], in test [4], in [5] and in test [6] was above 100 µM throughout. The TGI in test [7], in test [8], in test [9] and in test [10] was above 100 µM throughout.
In the case of `COC(=O)c1cc2c(c(C(=O)OC)c1O)C(=O)C=CC2=O`, the GI50 in [1], in test [2], in test [3], in test [4], in [5] and in [6] was above 9.1 µM each time. The GI50 in test [7] is 18.5 µM; in [10], above 9.1 µM. Also, the TGI in [1] was above 55.8 µM; in test [2], above 57.4 µM; in test [3] it was above 56.3 µM; in [4], above 60.7 µM; in [5], above 60.9 µM; in [6], above 100 µM. Also, the TGI in test [7] is > 9.1 µM and 34.7 µM; in test [8], above 22 µM; in test [9], above 21.9 µM; in test [10], above 49.4 µM.
Consider `CCC1(O)C(=O)OCc2c1cc1n(c2=O)Cc2cc3c(N)cccc3nc2-1` (configuration not stated), for which the TGI in test [1] was determined as 1.21 µM; in test [2], 2.58 µM; in test [3] it was 2.01 µM; in [4], 26.1 µM; in test [5], 3.02 µM; in test [6] it was 0.804 µM. Further, the TGI in test [7] was 0.0597 µM; in test [8], below 0.0114 µM; in test [9], 0.931 µM; in [10] it was 25.2 µM.
Turning to `CC12CCCC(CC(=O)c3[nH]c4ccccc4c31)C2` (configuration not stated), the GI50 in [1] was 0.689 µM; in test [2] it was 1.79 µM; in [3] it was 0.508 µM; in [4], 1.48 µM; in test [5] it was 0.384 µM; in test [6], 3.53 µM. For the same compound, the GI50 is 4.23 µM in [7], 0.238 µM in test [8], 2.56 µM in [9] and 0.413 µM in [10]. Also, the TGI in test [1] is 34.7 µM; in test [2], 24.6 µM; in test [3] it was 7.37 µM; in [4] it was above 100 µM; in test [5] it was 2.61 µM; in test [6], above 76.1 µM. Besides, the TGI in test [7] was 33.3 µM; in [8] it was 66.1 µM; in [9], 36.7 µM; in test [10] it was 24.4 µM.
For `COc1cc(Cn2c(-c3ccccc3)cc3c2-c2oncc2CC3)cc(OC)c1OC`, the GI50 in test [1] was 0.947 µM; in test [2] it was 2.21 µM; in [3], 0.366 µM; in test [4], 1.93 µM; in test [5], 0.372 µM; in test [6], 1.53 µM. Moreover, the GI50 in test [7] is 3.76 µM; in [8] it was 0.42 µM; in test [9], 12.7 µM; in test [10] it was 0.64 µM. In addition, the TGI in test [1] was 35.4 µM; in [2], above 100 µM; in [3] it was 5.57 µM; in test [4] it was above 100 µM; in test [5], 1.65 µM; in test [6] it was above 100 µM. The TGI in test [7] was above 100 µM; in test [8], 43.2 µM; in test [9] it was above 100 µM; in test [10] it was above 100 µM.
